Assay results from article PMC12352620, “Fragment-based discovery of dual ligand pharmacophores for lipid-sensing transcription factors for designed polypharmacology” (RSC Medicinal Chemistry, 2025).

How the values were obtained:
Format in all cases: cell-based
FXR = target: T1, FXR (Homo sapiens, UniProt Q96RI1); test: Gal4-hybrid reporter gene assay FXR; conditions: n ≥ 3; for fold act. FXR: mean, Fig. 8; for EC50 / EC50 FXR: HEK293T, Gal4-hybrid reporter, Inactive = tested 1–300 μM; for EC50 / max. fold activation FXR / EC50 FXR: mean ± S.E.M.; for max. fold activation FXR: maximum reporter activation vs DMSO (0.1%) treated cells
T1 construct: expressed in transfected cells; host or cells: HEK293T
T1 sequence (Q96RI1 262-486 limits assumed): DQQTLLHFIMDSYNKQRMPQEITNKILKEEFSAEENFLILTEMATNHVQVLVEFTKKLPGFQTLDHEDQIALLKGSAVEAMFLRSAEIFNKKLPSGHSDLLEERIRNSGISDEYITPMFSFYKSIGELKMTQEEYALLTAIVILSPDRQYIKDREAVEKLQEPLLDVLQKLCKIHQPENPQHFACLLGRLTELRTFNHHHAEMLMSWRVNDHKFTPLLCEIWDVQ
Experimental: (§1) NR modulation was determined as described previously[45] in Gal4 hybrid reporter gene assays in HEK293T cells (German Collection of Microorganisms and Cell Culture GmbH, DSMZ) using pFR-Luc (Stratagene, La Jolla, CA, USA; reporter), pRL-SV40 (Promega, Madison, WI, USA; internal control) and the hybrid receptor clones pFA-CMV-hTHRα-LBD,[46] pFA-CMV-hPPARγ-LBD,[47] pFA-CMV-hFXR-LBD,[48] and pFA-CMV-hRXRα-LBD,[49] coding for the hinge region and ligand binding domain of the canonical isoform of the respective NR. Cells were cultured in Dulbecco's modified Eagle's medium (DMEM), high glucose supplemented with 10% fetal calf serum (FCS), sodium pyruvate (1 mM), penicillin (100 U mL^−1), and streptomycin (100 μg mL^−1) at 37 °C and 5% CO2 and seeded in 96-well plates (3 × 10^4 cells per well). After 24 h, medium was changed to Opti-MEM without supplements and cells were transiently transfected using Lipofectamine LTX reagent (Invitrogen, Carlsbad, CA, USA) according to the manufacturer's protocol. Five hours after transfection, cells were incubated with the test compounds in Opti-MEM supplemented with penicillin (100 U mL^−1), streptomycin (100 μg mL^−1) and 0.1% DMSO for 16 h before luciferase activity was measured using the Dual-Glo Luciferase Assay System (Promega) according to the manufacturer's protocol on a Tecan Spark luminometer (Tecan Deutschland GmbH, Crailsheim, Germany). Firefly luminescence was divided by Renilla luminescence and multiplied by 1000 resulting in relative light units (RLU) to normalize for transfection efficiency and cell growth. Fold activation was obtained by dividing the mean RLU of test compound by the mean RLU of the untreated control. All samples were tested in at least three biologically independent experiments in duplicates. For dose–response curve fitting and calculation of EC50 values, the equation “[agonist] vs. response − variable slope (four parameters)” was used in GraphPad Prism (version 7.00, GraphPad Software, La Jolla, CA, USA). For selectivity profiling, the hybrid reporter gene assay was performed with Gal4 fusion receptor plasmids for RARα, PPARα, PPARδ, VDR, CAR and LXRα. The following reference agonists were used: triiodothyronine (1 μM, THR), all-trans retinoic acid (1 μM, RAR), GW7647 (1 μM, PPARα), pioglitazone (1 μM, PPARγ), L165041 (1 μM, PPARδ), calcitriol (1 μM, VDR), CITCO (1 μM, CAR), T0901317 (1 μM, LXR), GW4064 (1 μM, FXR), bexarotene (1 μM, RXR).

PPARα = target: T2, PPARα (Homo sapiens, UniProt Q07869); test: Gal4-hybrid reporter gene assay PPARα (selectivity); conditions: mean, n ≥ 3, Fig. 8
T2 construct: expressed in transfected cells; host or cells: HEK293T
T2 sequence (Q07869 167-468 limits assumed): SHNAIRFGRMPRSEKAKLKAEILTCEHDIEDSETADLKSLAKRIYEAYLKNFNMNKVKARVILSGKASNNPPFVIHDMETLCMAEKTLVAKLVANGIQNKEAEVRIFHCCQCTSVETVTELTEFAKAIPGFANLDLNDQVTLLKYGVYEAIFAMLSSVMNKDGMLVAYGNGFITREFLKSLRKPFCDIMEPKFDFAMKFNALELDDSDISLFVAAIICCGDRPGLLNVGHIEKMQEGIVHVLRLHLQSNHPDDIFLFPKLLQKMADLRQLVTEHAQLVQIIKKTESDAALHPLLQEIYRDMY
Experimental: as §1

THRα = target: T3, THRα (Homo sapiens, UniProt P10827); test: Gal4-hybrid reporter gene assay THRα; conditions: n ≥ 3; for fold act. THRα: mean, Fig. 8; for EC50: HEK293T, Gal4-hybrid reporter, Inactive = tested 1–300 μM; for EC50 / max. fold activation THRα: mean ± S.E.M.; for max. fold activation THRα: maximum reporter activation vs DMSO (0.1%) treated cells
T3 construct: expressed in transfected cells; host or cells: HEK293T
T3 sequence (P10827 128-410 isoform P10827-2 limits assumed): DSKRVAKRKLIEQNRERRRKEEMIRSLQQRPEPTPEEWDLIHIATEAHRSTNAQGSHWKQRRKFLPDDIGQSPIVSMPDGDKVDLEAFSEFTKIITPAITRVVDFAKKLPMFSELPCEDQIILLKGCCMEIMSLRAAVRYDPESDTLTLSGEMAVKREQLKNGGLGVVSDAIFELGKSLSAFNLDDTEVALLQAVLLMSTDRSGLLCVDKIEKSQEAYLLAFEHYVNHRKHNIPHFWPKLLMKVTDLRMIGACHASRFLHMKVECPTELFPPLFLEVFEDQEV
Experimental: as §1

PPARγ = target: T4, PPARγ (Homo sapiens, UniProt P37231); test: Gal4-hybrid reporter gene assay PPARγ; conditions: n ≥ 3; for fold act. PPARγ: mean, Fig. 8; for EC50: HEK293T, Gal4-hybrid reporter, Inactive = tested 1–300 μM; for EC50 / max. fold activation PPARγ: mean ± S.E.M.; for max. fold activation PPARγ: maximum reporter activation vs DMSO (0.1%) treated cells
T4 construct: expressed in transfected cells; host or cells: HEK293T
T4 sequence (P37231 238-503 limits assumed): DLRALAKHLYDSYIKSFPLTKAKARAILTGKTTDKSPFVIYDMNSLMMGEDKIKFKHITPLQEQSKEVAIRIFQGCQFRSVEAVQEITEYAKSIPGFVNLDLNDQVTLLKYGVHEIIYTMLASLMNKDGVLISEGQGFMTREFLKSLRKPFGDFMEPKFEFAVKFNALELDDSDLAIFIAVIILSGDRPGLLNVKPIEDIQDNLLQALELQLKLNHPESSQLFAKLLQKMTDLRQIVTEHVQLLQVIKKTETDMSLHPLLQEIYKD
Experimental: as §1

| Structure (SMILES) | fold act. FXR (FXR; 10 μM) [fold] | EC50 (FXR) [µM] | max. fold activation FXR (FXR) | fold act. PPARα (PPARα; 10 μM) [fold] | fold act. THRα (THRα; 10 μM) [fold] | EC50 (THRα) [µM] | max. fold activation THRα (THRα) | fold act. PPARγ (PPARγ; 10 μM) [fold] | EC50 (PPARγ) [µM] | max. fold activation PPARγ (PPARγ) | fold act. FXR (FXR; 30 μM) [fold] | EC50 FXR (FXR) | fold act. PPARα (PPARα; 30 μM) [fold] | fold act. THRα (THRα; 30 μM) [fold] | fold act. PPARγ (PPARγ; 30 μM) [fold] | fold act. FXR (FXR; 40 μM) [fold] | fold act. PPARα (PPARα; 40 μM) [fold] | fold act. THRα (THRα; 40 μM) [fold] | fold act. PPARγ (PPARγ; 40 μM) [fold] |
| --- | --- | --- | --- | --- | --- | --- | --- | --- | --- | --- | --- | --- | --- | --- | --- | --- | --- | --- | --- |
| CCOc1ccc(-c2cc(C(=O)O)co2)cc1 [3.1, 5-(4-Ethoxyphenyl)furan-3-carboxylic acid] | 6 | 1.3 ± 0.3 | (6.4 ± 0.3-fold) | 5 | 4 | 1.5 ± 0.2 | (3.7 ± 0.2-fold) | 6 | 3 ± 1 | (6.4 ± 0.6-fold) | – | – | – | – | – | – | – | – | – |
| O=C(O)/C=C/C(=O)c1ccc(Cl)cc1Cl [4.6, (E)-4-Oxo-4-(2,4-dichlorophenyl)but-2-enoic acid] | – | – | – | – | – | 43 ± 3 | (4.2 ± 0.3-fold) | – | 20 ± 5 | (13 ± 2-fold) | 1 | Inactive | 1 | 2 | 9 | – | – | – | – |
| O=C(O)/C=C/C(=O)c1ccc(-c2ccccc2)cc1 [4.7, (E)-4-([1,1′-Biphenyl]-4-yl)-4-oxobut-2-enoic acid] | – | – | – | – | – | 16 ± 7 | (14.8 ± 1.0-fold) | – | 18 ± 4 | (33.4 ± 2.7-fold) | 1 | Inactive | 6 | 15 | 32 | – | – | – | – |
| O=C(O)/C=C/C(=O)c1ccc2ccccc2c1 [4.8, (E)-4-Oxo-4-(naphthalen-2-yl)but-2-enoic acid] | – | 26 ± 4 | (7 ± 1-fold) | – | – | 39 ± 1 | (28 ± 1-fold) | – | 27 ± 1 | (16.7 ± 0.5-fold) | – | – | – | – | – | 6 | 7 | 16 | 18 |
